Assays:
[1] = test system: MTAP; experiment: Western blot of MTAP protein expression in DU145; format: cell-based, human; conditions: DU145, 4 day IC25 and IC50 of MTDIA, presence or absence of MTA
Procedure: FIG. 9. (A) Proliferation curves for LNCaP, DU145 and PC3 treated with MTDIA in the absence or presence of 10 or 20 uM MTA, for 4 and (B) 8 days. […] (C) Western blot analysis of FaDu, LNCaP, and DU145 cells after indicated treatments of MTA (0, 10, or 20 uM) or the respective 4 day IC25 and IC50 dose of MTDIA for each cell line plus or minus MTA immunoblotted with antibodies against MTAP, SMS, and SRM, with B-actin as a loading control. Western blot images are representative of biological triplicates.
Western Blotting—Whole cell extracts were prepared in RIPA buffer (150 mM NaCl, 1.0% NP-40, 0.5% deoxycholate, 0.1% SDS, 50 mM Tris-HCl pH 8.0, 5 mM EDTA and 0.5 mM PMSF) supplemented with 1× proteinase inhibitor. Protein concentrations were determined by Bradford Assay (Thermo Scientific, Cat #1856209). […] MTAP for Westerns was purchased from Proteintech™ (Cat #11475-1-AP. SRM and SMS were purchased from Abcam® (Cat #ab111884 and ab156879). B-actin antibody for Westerns was purchased from Sigma-Aldrich (Cat #A5441) and GAPDH was from Santa Cruz Biotecnology Inc. (Cat #sc-25778). Films were scanned using the Biorad ChemiDoc XRS, and band intensities were calculated using Image Lab™. Intensity values were normalized to B-actin loading control band intensities and made relative to control treatment conditions.

[2] = test system: lung adenocarcinoma cell lines; conditions: 6 day treatment, 20 uM MTA added to the media; cited from earlier work
[3] = test system: LNG53 cells; experiment: Antiproliferative activity of MTDIA in LNCaP cells overexpressing SAT1 in Tet-off system; format: cell-based, human; conditions: (-) Tet conditions, Tet removed 24 hours prior to 96 hr MTDIA
Procedure: Tet was removed 24 hours prior to 96 hr treatment with MTDIA. […] Cells were pre-treated with BENSpm for 24 hours followed by 96 hr treatment with MTDIA.
We next analyzed whether the metabolic stress in CaP cells caused by high biosynthetic flux to maintain polyamine pools can be enhanced by increasing the activity of SAT1. We tested whether this could cause increased secretion of acetylated polyamines, putting intracellular pools in deficit, which should necessitate more biosynthesis, and should therefore potentiate any benefit of inhibiting the MSP. To conduct this analysis we used LNCaP cells that stably overexpress SAT1 in a Tet-off system (LNG53 cells, described in Kee, K., et al. J Biol Chem 279, 27050-27058 (2004)).

[4] = test system: DU145; experiment: Proliferation / IC50 by trypan blue cell counts, DU145; format: cell-based, human; conditions: for effect on cell growth: 8 and 12 days; for IC50: Homo sapiens
Procedure: (§1) A transition state analog inhibitor of MTAP, Methylthio-DaDMe-Immucillin-A (MTDIA) was previously described and shown to be effective following a 6 or 12 day treatment at ˜10 and 100 nM MTDIA when 20 uM MTA was added to the media in both lung adenocarcinoma cell lines and head and neck squamous carcinoma cell lines, respectively [Basu I, et al. J Biol Chem. 2007; 282:21477-21486; Basu I, et al. J Biol Chem. 2011; 286:4902-491]. 32]. We synthesized MTDIA and the analytical data on the synthesized compound are shown in FIGS. 8A and 8B with the scheme used for synthesis shown in FIG. 6. […] In all three cell lines, the proliferation curves after 12 days of treatment show an IC50 of MTDIA>1 mM in the absence of MTA (FIG. 5B), but in the 10-100 nM range with the addition of 10 or 20 μM MTA. […] Nanomolar range IC50 values are highlighted.
(§2) IC50—The MTAP inhibitor (3R,4S)-1-[(9-Deaza-adenin-9-yl)methyl]-3-hydroxy-4-(methylthiomethyl)-pyrrolidine, or MT-DADMe-Immucillin-A (MTDIA) was synthesized following the synthesis scheme shown in FIG. 6 and based on a known approach. Cells were seeded at 125,000 cells/well (PC-3, DU145, LNCaP) in triplicate in 2 mLs of RPMI medium supplemented with 10% fetal bovine serum, and 1% penicillin streptomycin. After 24 hours the MTDIA and/or MTA was added at the indicated concentrations. Both medium and drug were refreshed every 48 hours. Every 96 hours the cells were trypsinized, ˜2% of cells were removed and counted by trypan blue exclusion and the rest were replated into a larger vessel.

[5] = test system: FaDu cells; experiment: IC50 of MTDIA for FaDu cells; format: cell-based; conditions: Homo sapiens, 144 h, 6 day treatment, 20 uM MTA
[6] = test system: PC3; experiment: Proliferation / IC50 by trypan blue cell counts, PC3; format: cell-based, human; conditions: for IC50: Homo sapiens; for effect on cell growth: 8 and 12 days
Procedure: as §1, §2

[7] = test system: spermine synthase; experiment: Western blot of spermine synthase in LNCaP; format: cell-based, human; conditions: treatment with MTDIA
Procedure: FIG. 9. (A) Proliferation curves for LNCaP, DU145 and PC3 treated with MTDIA in the absence or presence of 10 or 20 uM MTA, for 4 and (B) 8 days. Results of biological triplicates are shown with absolute IC50s indicated for each condition. (C) Western blot analysis of FaDu, LNCaP, and DU145 cells after indicated treatments of MTA (0, 10, or 20 uM) or the respective 4 day IC25 and IC50 dose of MTDIA for each cell line plus or minus MTA immunoblotted with antibodies against MTAP, SMS, and SRM, with B-actin as a loading control. Western blot images are representative of biological triplicates. Band intensity values normalized to B-actin relative to control conditions are indicated below the respective band.
Western Blotting—Whole cell extracts were prepared in RIPA buffer (150 mM NaCl, 1.0% NP-40, 0.5% deoxycholate, 0.1% SDS, 50 mM Tris-HCl pH 8.0, 5 mM EDTA and 0.5 mM PMSF) supplemented with 1× proteinase inhibitor. Protein concentrations were determined by Bradford Assay (Thermo Scientific, Cat #1856209). Samples were resolved on polyacrylamide gels and transferred onto PVDF membranes (Biorad, Cat #162-0177). Blots were incubated with primary antibodies overnight at 4° and with secondaries for 1.5 hours at room temperature. Signals were visualized using Pierce ECL western blotting substrate (Thermo Scientific, Cat #32209) and exposed to film. […]

CSC[C@H]1CN(Cc2c[nH]c3c(N)ncnc23)C[C@@H]1O [MTDIA, (3R,4S)-1-[(9-Deaza-adenin-9-yl)methyl]-3-hydroxy-4-(methylthiomethyl)-pyrrolidine]
MTAP expression [1]: upregulate expression of MTAP | effective concentration [2]: ~10 nM | sensitivity to MTDIA when SAT1 is overexpressed [3]: much more sensitive | effect on cell growth ([4]; DU145, 100 nM MTDIA, with 20 μM MTA): dramatic effect on cell growth | effect on cell growth ([4]; DU145, 100 nM MTDIA, without MTA): little to no effect | effect on growth ([4]; DU145, 100 nM MTDIA, 4 days, with or without 20 μM MTA): limited effects on growth | blocking cell growth ([4]; DU145, 6 days, low concentrations of MTDIA): no effect at blocking cell growth | IC50 ([4]; DU-145, 96 h, DU145, 4 days, 0 μM MTA): > 1000 µM | IC50 ([4]; DU-145, 96 h, DU145, 4 days, 10 μM MTA): > 1000 µM | IC50 ([4]; DU-145, 96 h, DU145, 4 days, 20 μM MTA): > 1000 µM | IC50 ([4]; DU-145, 192 h, DU145, 8 days, 0 μM MTA): > 1000 µM | IC50 ([4]; DU-145, 192 h, DU145, 8 days, 10 μM MTA): 0.022 µM | IC50 ([4]; DU-145, 192 h, DU145, 8 days, 20 μM MTA): 590 µM | IC50 ([4]; DU-145, 288 h, DU145, 12 days, 0 μM MTA): > 1000 µM | IC50 ([4]; DU-145, 288 h, DU145, 12 days, 10 μM MTA): 0.014 µM | IC50 ([4]; DU-145, 288 h, DU145, 12 days, 20 μM MTA): 0.01 µM | IC50 ([4]; DU-145, 288 h, DU145, 12 days, with 10 or 20 μM MTA): 0.01 to 0.1 µM | IC50 [5]: ~0.05 µM | IC50 ([6]; PC-3, 96 h, PC3, 4 days, 0 μM MTA): > 1000 µM | IC50 ([6]; PC-3, 96 h, PC3, 4 days, 10 μM MTA): > 1000 µM | IC50 ([6]; PC-3, 96 h, PC3, 4 days, 20 μM MTA): 300 µM | IC50 ([6]; PC-3, 192 h, PC3, 8 days, 0 μM MTA): > 1000 µM | IC50 ([6]; PC-3, 192 h, PC3, 8 days, 10 μM MTA): 100 µM | IC50 ([6]; PC-3, 192 h, PC3, 8 days, 20 μM MTA): 0.09 µM | IC50 ([6]; PC-3, 288 h, PC3, 12 days, 0 μM MTA): > 1000 µM | IC50 ([6]; PC-3, 288 h, PC3, 12 days, 10 μM MTA): 80 µM | IC50 ([6]; PC-3, 288 h, PC3, 12 days, 20 μM MTA): 0.082 µM | IC50 ([6]; PC-3, 288 h, PC3, 12 days, with 10 or 20 μM MTA): 0.01 to 0.1 µM | effect on cell growth ([6]; PC3, 100 nM MTDIA, with 20 μM MTA): dramatic effect on cell growth | effect on cell growth ([6]; PC3, 100 nM MTDIA, without MTA): little to no effect | effect on growth ([6]; PC3, 100 nM MTDIA, 4 days, with or without 20 μM MTA): limited effects on growth | blocking cell growth ([6]; PC3, 6 days, low concentrations of MTDIA): no effect at blocking cell growth | spermine synthase expression [7]: upregulated
